Like-named read-outs stand apart in the source and are kept apart here.
How the values were obtained:
RBL-2H3 cells [1] = experiment: β-Hexosaminidase release assay; type: cell-based, rat; conditions: 15 min
Protocol: RBL-2H3 cells were plated into 24-well culture dishes at a cell density of 2 × 10^5 cells per well, or into 6-well culture dishes at a cell density of 9 × 10^5 cells per well, for 1 day at 37 °C in 5% CO2 atmosphere. After 1 day, RBL-2H3 cells were stimulated with SP (10 μM) or vehicle (water) and incubated for 15 min at 37 °C in 5% CO2 atmosphere.
SP-stimulated RBL-2H3 cells (2 × 10^5 cells/well) were treated with PEA (0.1, 0.5, 1, and 10 μM) or vehicle (methanol, max 0.1%) for 15 min at 37 °C in 5% CO2 atmosphere. After 15 min, the supernatants (15 μl) were transferred to 96-well plates and incubated with 60 μl of substrate (1 mM p-nitrophenyl-N-acetyl-β-D-glucosaminide in citrate 0.05 M, pH 4.5) for 1 h at 37 °C. To determine the total amount of released β-hexosaminidase, the cells were lysed with 0.1% Triton X-100 and incubated with substrate using the same procedure as for the determination of the activity in the supernatants. The reaction was stopped by adding 150 μl of 0.1 M sodium bicarbonate buffer (pH 10.0), and the reaction product was monitored by measuring the optical density (OD) at 405 nm by using a reader GENios Pro (Tecan). The results were expressed as % of the total β-hexosaminidase content of the cells determined by cell lysis with 0.1% Triton X-100, and calculated by using the following formula: % degranulation = [ODsupernatant/(ODsupernatant + ODtriton x−100)] × 100.

RBL-2H3 cells [2] = type: cell-based; conditions: 15 min
Protocol: The relative number of live and dead cells was measured after 15 min in RBL-2H3 cells (2 × 10^5 cells/well) stimulated with SP (10 μM) and treated with PEA (10 μM) by using MultiTox-Glo multiplex cytotoxicity kit, according to the manufacturer’s instructions (Promega Italia). Relative fluorescence units (RFU) were measured by using a GloMax Multi Detection System (Promega Italia).

RBL-2H3 cells [3] = experiment: Quantitative real-time PCR of PEA/2-AG receptors and metabolic enzymes; type: cell-based, rat; conditions: cells stimulated 15 min with SP 10 μM or PEA 10 μM or both, vs unstimulated
Description: The mRNA expression of PEA target genes (Cnr1, Cnr2, Trpv1, Ppara, and Gpr55), as well as PEA and 2-AG biosynthetic (N-acyl phosphatidylethanolamine-specific phospholipase D, Napepld, Dagla and Daglb) and catabolic enzyme genes (fatty acid amide hydrolase, Faah; N-acylethanolamine-hydrolyzing acid amidase, Naaa; and monoacylglycerol lipase, Mgl), was studied by comparison of transcriptional expression in unstimulated RBL-2H3 cells (plated on 100 mm diameter Petri dishes) vs. the expression of these targets and enzymes in RBL-2H3 cells treated with PEA (10 μM), or stimulated with SP (10 μM) in the presence and absence of PEA (10 μM), for 15 min at 37 °C in 5% CO2 atmosphere. Total RNA was purified, quantified and reverse transcribed as previously reported. For each target, all mRNA sequences were aligned and common primers were designed (Table 1). Quantitative real-time PCR was performed by an iCycler-iQ5 in a 20 μl reaction mixture using 20 ng of cDNA. Assays were performed in quadruplicate (maximum ΔCt of replicate samples < 0.5). Optimized primers for SYBR-green analysis and optimum annealing temperatures were designed by the Allele-Id software version 7.0 (Biosoft International) and were synthesized (HPLC-purification grade) by MWG-Biotech. […] Results were expressed as fold expression compared with a reference condition (2^^−∆∆ct formula).

human CB2 receptor [4] = target: T1, human CB2 receptor (Homo sapiens, UniProt P34972); experiment: cAMP Hunter functional activity assay at the CB2 receptors; type: cell-based; parameters: host or cells: CHO-K1; conditions: 10 μM, highest concentration tested, CHO-K1 cells overexpressing human CB2
Protocol: The cAMP Hunter™ eXpress G protein-coupled receptor (GPCR) assay was performed in Chinese Hamster Ovary (CHO)-Kl cells overexpressing the human CB2 receptor. Gi-coupled cAMP modulation was measured following the manufacturer’s protocol (DiscoverX, Fremont, CA). CHO-K1 cells overexpressing the human CB2 receptor were plated into a 96-well plate (3× 10^4 cells/well) and incubated overnight at 37 °C in 5% CO2 atmosphere. The media were aspirated and replaced with 30 μl of assay buffer. Cells were incubated 30 min at 37 °C with 15 μl of 3× concentration-response solutions of 2-AG (0.01–50 μM), or PEA (10 μM), prepared in presence of cell assay buffer containing a 3× of 25 μM NKH-477 solution (a water-soluble analog of Forskolin) to stimulate adenylate cyclase and enhance basal cAMP levels. We also investigated the effect of PEA on 2-AG receptor activation by co-incubation. Therefore, cells were also incubated 30 min at 37 °C with 2-AG and PEA (10 μM) in the presence of NKH-477 to stimulate adenylate cyclase and enhance cAMP levels. […] Relative luminescence units (RLU) were measured by using a GloMax Multi Detection System (Promega Italia). […] The percentage of response was calculated by using the following formula: % RESPONSE = 100% × (1-(RLU of test compound-RLU of NKH-477 positive control)/(RLU of vehicle-RLU of NKH-477 positive control).

human CB2 receptor [5] = target: T1, human CB2 receptor; experiment: Competition binding assay for CB2 receptors ([3H]-CP-55,940 displacement); parameters: purchased Perkin Elmer; host or cells: HEK-293
Description: Data were expressed as Ki (μM) and calculated by applying the Cheng-Prusoff equation to the IC50 values for the displacement of the bound radioligand.

[6] = SP (10 μM)-stimulated cells, PEA 10 μM, vs vehicle-stimulated cells
[7] = substance alone 10 μM, vs vehicle

T1 sequence (P34972 whole entry): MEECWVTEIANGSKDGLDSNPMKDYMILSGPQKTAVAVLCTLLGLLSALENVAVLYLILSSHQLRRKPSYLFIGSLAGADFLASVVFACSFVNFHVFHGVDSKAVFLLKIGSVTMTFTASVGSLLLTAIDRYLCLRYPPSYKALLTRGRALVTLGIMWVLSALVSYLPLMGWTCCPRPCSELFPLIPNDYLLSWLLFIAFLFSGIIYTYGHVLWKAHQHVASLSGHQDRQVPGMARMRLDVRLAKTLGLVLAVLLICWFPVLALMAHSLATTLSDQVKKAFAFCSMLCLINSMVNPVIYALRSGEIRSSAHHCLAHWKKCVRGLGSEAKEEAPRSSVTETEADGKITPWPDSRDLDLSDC

## CCCCCCCCCCCCCCCC(=O)NCCO [PEA, Palmitoylethanolamide]
RBL-2H3 cells [1]; SP (10 μM)-stimulated cells, PEA 0.1, 0.5, 1 and 10 μM, concentration-dependent, vs SP + vehicle
  β-hexosaminidase release: strongly reduced
RBL-2H3 cells [1]; substance alone 10 μM, vs vehicle-treated cells
  β-hexosaminidase release: No effect
RBL-2H3 cells [2]; [6]
  cell viability: did not alter
  cytotoxicity: did not alter
RBL-2H3 cells [2]; [7]
  cell viability: No effect
  cytotoxicity: No effect
RBL-2H3 cells [3]
  mRNA expression of Cnr2, Napepld, Naaa, Daglb, Faah and Mgl: no statistically significant change
Human CB2 receptor [4]
  effect on NKH-477-induced cAMP levels (CB2 activation): failed at decreasing cAMP levels
Human CB2 receptor [5]; PEA 10 μM per se, WIN55,212-2 10 μM = 100% displacement
  [3H]-CP55,940 displacement: 33.51 ± 5.28%
Human CB2 receptor [5]; compound alone, displacement of [3H]-CP-55,940, HEK-293 membranes, 90 min 30 °C
  Ki: > 10 µM

From publication PMC6933707, “Palmitoylethanolamide counteracts substance P-induced mast cell activation in vitro by stimulating diacylglycerol lipase activity” (Journal of Neuroinflammation, 2019)
